Measurements taken from ChEMBL document CHEMBL1139078, “ortho-Substituted azoles as selective and dual inhibitors of VEGF receptors 1 and 2” (Bioorg Med Chem Lett, 2007).

Tests used:
[1] = target: T1, Vascular endothelial growth factor receptor 2 (Homo sapiens, UniProt P35968); assay: Inhibition of VEGFR2 by HTRF assay
[2] = target: T1, Vascular endothelial growth factor receptor 2; assay: Inhibition of VEGFR2 by cell-based assay; type: functional
[3] = Intrinsic permeability across Caco-2 cell monolayers; settings: human
[4] = target: T1, Vascular endothelial growth factor receptor 2; assay: Inhibition of VEGFR2 by [32P]ATP-competitive radioassay
[5] = target: Vascular endothelial growth factor receptor 1 (Homo sapiens, UniProt P17948); assay: Inhibition of VEGFR1 by HTRF assay
Sequence of Vascular endothelial growth factor receptor 1 (P17948 whole entry, looked up): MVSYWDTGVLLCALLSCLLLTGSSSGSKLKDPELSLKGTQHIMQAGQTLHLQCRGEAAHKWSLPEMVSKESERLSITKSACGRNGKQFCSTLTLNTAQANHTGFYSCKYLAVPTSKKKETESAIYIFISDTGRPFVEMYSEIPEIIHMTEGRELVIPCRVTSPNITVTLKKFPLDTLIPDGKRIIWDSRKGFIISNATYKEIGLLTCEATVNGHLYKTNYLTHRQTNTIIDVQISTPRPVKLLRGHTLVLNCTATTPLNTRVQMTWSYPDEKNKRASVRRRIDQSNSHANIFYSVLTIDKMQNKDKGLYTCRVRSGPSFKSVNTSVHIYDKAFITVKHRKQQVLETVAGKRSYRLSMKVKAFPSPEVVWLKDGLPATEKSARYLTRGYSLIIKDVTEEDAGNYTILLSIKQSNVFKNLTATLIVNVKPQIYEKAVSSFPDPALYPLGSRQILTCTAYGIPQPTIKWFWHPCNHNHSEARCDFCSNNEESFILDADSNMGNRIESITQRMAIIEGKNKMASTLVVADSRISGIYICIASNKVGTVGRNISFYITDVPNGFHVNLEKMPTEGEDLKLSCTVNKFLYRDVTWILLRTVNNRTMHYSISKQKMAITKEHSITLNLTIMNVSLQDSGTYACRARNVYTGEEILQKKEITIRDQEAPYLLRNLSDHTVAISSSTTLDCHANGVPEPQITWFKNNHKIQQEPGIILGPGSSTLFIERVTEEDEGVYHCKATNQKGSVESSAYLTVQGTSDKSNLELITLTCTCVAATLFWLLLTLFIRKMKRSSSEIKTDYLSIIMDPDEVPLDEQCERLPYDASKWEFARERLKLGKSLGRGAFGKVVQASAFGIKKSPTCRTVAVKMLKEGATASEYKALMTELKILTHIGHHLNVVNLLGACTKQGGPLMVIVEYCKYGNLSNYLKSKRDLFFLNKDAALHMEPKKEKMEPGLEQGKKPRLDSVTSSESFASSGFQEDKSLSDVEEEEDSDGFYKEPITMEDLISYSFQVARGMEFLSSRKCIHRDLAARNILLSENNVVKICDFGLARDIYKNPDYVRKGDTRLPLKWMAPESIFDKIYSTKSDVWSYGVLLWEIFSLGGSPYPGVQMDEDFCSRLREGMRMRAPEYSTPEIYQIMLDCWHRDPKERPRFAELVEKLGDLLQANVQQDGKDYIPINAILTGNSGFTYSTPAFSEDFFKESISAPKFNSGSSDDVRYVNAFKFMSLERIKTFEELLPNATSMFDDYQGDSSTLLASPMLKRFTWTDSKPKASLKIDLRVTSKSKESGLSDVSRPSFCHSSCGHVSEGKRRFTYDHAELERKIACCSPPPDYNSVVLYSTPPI

T1 sequence (P35968 whole entry): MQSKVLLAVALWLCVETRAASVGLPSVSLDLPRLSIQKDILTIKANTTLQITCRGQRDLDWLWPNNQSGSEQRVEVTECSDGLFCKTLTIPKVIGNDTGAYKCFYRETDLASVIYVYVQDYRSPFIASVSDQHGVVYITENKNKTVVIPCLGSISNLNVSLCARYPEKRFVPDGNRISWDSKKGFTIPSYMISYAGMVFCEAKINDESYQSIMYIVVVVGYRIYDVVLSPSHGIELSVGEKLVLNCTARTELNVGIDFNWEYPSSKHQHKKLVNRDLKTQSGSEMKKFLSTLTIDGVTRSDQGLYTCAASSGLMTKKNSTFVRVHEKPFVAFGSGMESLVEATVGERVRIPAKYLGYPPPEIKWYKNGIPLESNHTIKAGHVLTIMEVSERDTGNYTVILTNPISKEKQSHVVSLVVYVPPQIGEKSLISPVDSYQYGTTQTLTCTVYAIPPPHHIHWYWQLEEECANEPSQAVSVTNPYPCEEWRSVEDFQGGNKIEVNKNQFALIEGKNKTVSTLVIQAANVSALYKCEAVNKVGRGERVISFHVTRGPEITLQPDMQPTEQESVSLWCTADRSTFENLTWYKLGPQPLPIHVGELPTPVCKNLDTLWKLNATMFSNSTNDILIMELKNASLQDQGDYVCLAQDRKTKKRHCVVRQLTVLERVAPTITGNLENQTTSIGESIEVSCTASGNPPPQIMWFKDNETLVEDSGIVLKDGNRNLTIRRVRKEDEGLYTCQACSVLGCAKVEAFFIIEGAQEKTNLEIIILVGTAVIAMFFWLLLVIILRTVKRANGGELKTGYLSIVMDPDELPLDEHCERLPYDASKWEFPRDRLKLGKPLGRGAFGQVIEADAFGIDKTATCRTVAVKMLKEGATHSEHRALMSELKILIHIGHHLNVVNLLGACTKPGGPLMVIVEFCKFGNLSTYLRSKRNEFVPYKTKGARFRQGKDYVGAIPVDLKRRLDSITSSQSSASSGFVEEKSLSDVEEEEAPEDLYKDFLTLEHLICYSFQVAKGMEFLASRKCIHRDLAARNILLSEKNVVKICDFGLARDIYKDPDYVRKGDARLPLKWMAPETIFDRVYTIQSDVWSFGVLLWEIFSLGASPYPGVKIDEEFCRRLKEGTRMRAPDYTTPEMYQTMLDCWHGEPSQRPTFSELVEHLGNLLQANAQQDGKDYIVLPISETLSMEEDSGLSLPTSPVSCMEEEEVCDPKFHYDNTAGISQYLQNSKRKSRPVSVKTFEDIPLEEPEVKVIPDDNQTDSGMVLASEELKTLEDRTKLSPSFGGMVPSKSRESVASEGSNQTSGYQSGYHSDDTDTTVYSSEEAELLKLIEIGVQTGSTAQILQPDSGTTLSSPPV

- IC50 [1]: 87 nM
- IC50 [2]: 64 nM
- Papp [3]: 7.55 ×10⁻⁶ cm/s
- Ki [4]: 200 nM
- IC50 [5]: 110 nM
SMILES: Cn1cnc(NCc2ccncc2)c1C(=O)Nc1ccc(C(C)(C)C)cc1
